Source: the supplement of paper PMC4862054

What follows are compounds tested on CAL-120 (assay: normalised response (% of control), CellTiter-Glo; higher = more viable cells (100 = DMSO, 0 = benzethonium chloride kill control)). Conditions: incubation time: 72 h.
Outline: (§1)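 Breast cancer cell lines were exposed for 72 h in 384-well plates to compound at 5 concentrations, 10-fold apart, covering a 10,000-fold range fixed for each compound. Plates were read for CellTox Green fluorescence and CellTiter-Glo luminescence and normalised to 0.1 % DMSO (100) and a positive kill control (0). Each value is the normalised signal at one concentration of the series.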

Question: With C/C(=C\c1csc(C)n1)[C@@H]1C[C@@H]2O[C@]2(C)CCC[C@H](C)[C@H](O)[C@@H](C)C(=O)C(C)(C)[C@@H](O)CC(=O)N1 [Ixabepilone] (10 nM) as the compound, how does the normalised response read?
Answer: 102%

Question: How did the normalised response turn out when CN(C)C(=N)NC(=N)N [Metformin] (1000 nM) was run?
Answer: 104%

Question: CN(Cc1cnc2nc(N)nc(N)c2n1)c1ccc(C(=O)N[C@@H](CCC(=O)O)C(=O)O)cc1 [Methotrexate] (500 nM) was tested. Which normalised response did it give?
Answer: 81.8%

Question: For Cc1cn(-c2cc(NC(=O)c3ccc(C)c(Nc4nccc(-c5cccnc5)n4)c3)cc(C(F)(F)F)c2)cn1 [Nilotinib] (100 nM), which normalised response is on record?
Answer: 94.4%

Question: For CC[C@H](CO)Nc1nc(NCc2ccccc2)c2ncn(C(C)C)c2n1 [Seliciclib] (100 nM), which normalised response is on record?
Answer: 97.6%

Question: Which normalised response does the source give for C=CCN(/C=C1/C(=O)O[C@H](COC)[C@@]2(C)C1=C(O)C(=O)C1=C2[C@H](OC(C)=O)C[C@]2(C)C(=O)CC[C@@H]12)CC=C [Sonolisib] (100 nM) here?
Answer: 109%

What follows are compounds tested on DU-4475 in the same assay as above. Conditions: incubation time: 72 h.
Outline: as §1

Question: How did the normalised response turn out when C/C(=C\c1csc(C)n1)[C@@H]1C[C@@H]2O[C@]2(C)CCC[C@H](C)[C@H](O)[C@@H](C)C(=O)C(C)(C)[C@@H](O)CC(=O)N1 [Ixabepilone] (10 nM) was run?
Answer: 104%

Question: CN(C)C(=N)NC(=N)N [Metformin] (1000 nM) was tested. Which normalised response did it give?
Answer: 88.4%

Question: CN(Cc1cnc2nc(N)nc(N)c2n1)c1ccc(C(=O)N[C@@H](CCC(=O)O)C(=O)O)cc1 [Methotrexate] (500 nM) was tested. Which normalised response did it give?
Answer: 105%

Question: How did the normalised response turn out when Cc1cn(-c2cc(NC(=O)c3ccc(C)c(Nc4nccc(-c5cccnc5)n4)c3)cc(C(F)(F)F)c2)cn1 [Nilotinib] (100 nM) was run?
Answer: 103%

Question: For CC[C@H](CO)Nc1nc(NCc2ccccc2)c2ncn(C(C)C)c2n1 [Seliciclib] (100 nM), which normalised response is on record?
Answer: 104%

Question: With C=CCN(/C=C1/C(=O)O[C@H](COC)[C@@]2(C)C1=C(O)C(=O)C1=C2[C@H](OC(C)=O)C[C@]2(C)C(=O)CC[C@@H]12)CC=C [Sonolisib] (100 nM) as the compound, how does the normalised response read?
Answer: 105%

What follows are compounds tested on HCC1143 in the same assay as above. Conditions: incubation time: 72 h.
Outline: as §1

Question: Which normalised response does the source give for C/C(=C\c1csc(C)n1)[C@@H]1C[C@@H]2O[C@]2(C)CCC[C@H](C)[C@H](O)[C@@H](C)C(=O)C(C)(C)[C@@H](O)CC(=O)N1 [Ixabepilone] (10 nM) here?
Answer: 102%

Question: For CN(C)C(=N)NC(=N)N [Metformin] (1000 nM), which normalised response is on record?
Answer: 102%

Question: For CN(Cc1cnc2nc(N)nc(N)c2n1)c1ccc(C(=O)N[C@@H](CCC(=O)O)C(=O)O)cc1 [Methotrexate] (500 nM), which normalised response is on record?
Answer: 96.4%

Question: How did the normalised response turn out when Cc1cn(-c2cc(NC(=O)c3ccc(C)c(Nc4nccc(-c5cccnc5)n4)c3)cc(C(F)(F)F)c2)cn1 [Nilotinib] (100 nM) was run?
Answer: 94.2%

Question: For CC[C@H](CO)Nc1nc(NCc2ccccc2)c2ncn(C(C)C)c2n1 [Seliciclib] (100 nM), which normalised response is on record?
Answer: 106%

Question: Which normalised response does the source give for C=CCN(/C=C1/C(=O)O[C@H](COC)[C@@]2(C)C1=C(O)C(=O)C1=C2[C@H](OC(C)=O)C[C@]2(C)C(=O)CC[C@@H]12)CC=C [Sonolisib] (100 nM) here?
Answer: 105%

What follows are compounds tested on MDA-MB-436 in the same assay as above. Conditions: incubation time: 72 h.
Outline: as §1

Question: C/C(=C\c1csc(C)n1)[C@@H]1C[C@@H]2O[C@]2(C)CCC[C@H](C)[C@H](O)[C@@H](C)C(=O)C(C)(C)[C@@H](O)CC(=O)N1 [Ixabepilone] (10 nM) was tested. Which normalised response did it give?
Answer: 106%

Question: For CN(C)C(=N)NC(=N)N [Metformin] (1000 nM), which normalised response is on record?
Answer: 108%

Question: For CN(Cc1cnc2nc(N)nc(N)c2n1)c1ccc(C(=O)N[C@@H](CCC(=O)O)C(=O)O)cc1 [Methotrexate] (500 nM), which normalised response is on record?
Answer: 91.9%

Question: How did the normalised response turn out when Cc1cn(-c2cc(NC(=O)c3ccc(C)c(Nc4nccc(-c5cccnc5)n4)c3)cc(C(F)(F)F)c2)cn1 [Nilotinib] (100 nM) was run?
Answer: 100%

Question: With CC[C@H](CO)Nc1nc(NCc2ccccc2)c2ncn(C(C)C)c2n1 [Seliciclib] (100 nM) as the compound, how does the normalised response read?
Answer: 105%

Question: How did the normalised response turn out when C=CCN(/C=C1/C(=O)O[C@H](COC)[C@@]2(C)C1=C(O)C(=O)C1=C2[C@H](OC(C)=O)C[C@]2(C)C(=O)CC[C@@H]12)CC=C [Sonolisib] (100 nM) was run?
Answer: 106%

Each compound was assayed on BT-549 in the same assay as above. Conditions: incubation time: 72 h.
Outline: as §1

Question: With C/C(=C\c1csc(C)n1)[C@@H]1C[C@@H]2O[C@]2(C)CCC[C@H](C)[C@H](O)[C@@H](C)C(=O)C(C)(C)[C@@H](O)CC(=O)N1 [Ixabepilone] (10 nM) as the compound, how does the normalised response read?
Answer: 102%

Question: CN(C)C(=N)NC(=N)N [Metformin] (1000 nM) was tested. Which normalised response did it give?
Answer: 103%

Question: CN(Cc1cnc2nc(N)nc(N)c2n1)c1ccc(C(=O)N[C@@H](CCC(=O)O)C(=O)O)cc1 [Methotrexate] (500 nM) was tested. Which normalised response did it give?
Answer: 102%

Question: Which normalised response does the source give for Cc1cn(-c2cc(NC(=O)c3ccc(C)c(Nc4nccc(-c5cccnc5)n4)c3)cc(C(F)(F)F)c2)cn1 [Nilotinib] (100 nM) here?
Answer: 115%

Question: How did the normalised response turn out when CC[C@H](CO)Nc1nc(NCc2ccccc2)c2ncn(C(C)C)c2n1 [Seliciclib] (100 nM) was run?
Answer: 102%

Question: How did the normalised response turn out when C=CCN(/C=C1/C(=O)O[C@H](COC)[C@@]2(C)C1=C(O)C(=O)C1=C2[C@H](OC(C)=O)C[C@]2(C)C(=O)CC[C@@H]12)CC=C [Sonolisib] (100 nM) was run?
Answer: 106%

What follows are compounds tested on MFM-223 in the same assay as above. Conditions: incubation time: 72 h.
Outline: as §1

Question: Which normalised response does the source give for C/C(=C\c1csc(C)n1)[C@@H]1C[C@@H]2O[C@]2(C)CCC[C@H](C)[C@H](O)[C@@H](C)C(=O)C(C)(C)[C@@H](O)CC(=O)N1 [Ixabepilone] (10 nM) here?
Answer: 105%

Question: With CN(C)C(=N)NC(=N)N [Metformin] (1000 nM) as the compound, how does the normalised response read?
Answer: 83.2%

Question: CN(Cc1cnc2nc(N)nc(N)c2n1)c1ccc(C(=O)N[C@@H](CCC(=O)O)C(=O)O)cc1 [Methotrexate] (500 nM) was tested. Which normalised response did it give?
Answer: 105%

Question: Which normalised response does the source give for Cc1cn(-c2cc(NC(=O)c3ccc(C)c(Nc4nccc(-c5cccnc5)n4)c3)cc(C(F)(F)F)c2)cn1 [Nilotinib] (100 nM) here?
Answer: 96%

Question: For CC[C@H](CO)Nc1nc(NCc2ccccc2)c2ncn(C(C)C)c2n1 [Seliciclib] (100 nM), which normalised response is on record?
Answer: 107%

Question: Which normalised response does the source give for C=CCN(/C=C1/C(=O)O[C@H](COC)[C@@]2(C)C1=C(O)C(=O)C1=C2[C@H](OC(C)=O)C[C@]2(C)C(=O)CC[C@@H]12)CC=C [Sonolisib] (100 nM) here?
Answer: 107%

The compounds below were run on Hs578T in the same assay as above. Conditions: incubation time: 72 h.
Outline: as §1

Question: Which normalised response does the source give for C/C(=C\c1csc(C)n1)[C@@H]1C[C@@H]2O[C@]2(C)CCC[C@H](C)[C@H](O)[C@@H](C)C(=O)C(C)(C)[C@@H](O)CC(=O)N1 [Ixabepilone] (10 nM) here?
Answer: 107%

Question: With CN(C)C(=N)NC(=N)N [Metformin] (1000 nM) as the compound, how does the normalised response read?
Answer: 102%

Question: How did the normalised response turn out when CN(Cc1cnc2nc(N)nc(N)c2n1)c1ccc(C(=O)N[C@@H](CCC(=O)O)C(=O)O)cc1 [Methotrexate] (500 nM) was run?
Answer: 102%

Question: Cc1cn(-c2cc(NC(=O)c3ccc(C)c(Nc4nccc(-c5cccnc5)n4)c3)cc(C(F)(F)F)c2)cn1 [Nilotinib] (100 nM) was tested. Which normalised response did it give?
Answer: 97.6%

Question: How did the normalised response turn out when CC[C@H](CO)Nc1nc(NCc2ccccc2)c2ncn(C(C)C)c2n1 [Seliciclib] (100 nM) was run?
Answer: 104%

Question: For C=CCN(/C=C1/C(=O)O[C@H](COC)[C@@]2(C)C1=C(O)C(=O)C1=C2[C@H](OC(C)=O)C[C@]2(C)C(=O)CC[C@@H]12)CC=C [Sonolisib] (100 nM), which normalised response is on record?
Answer: 94.7%

What follows are compounds tested on BT-474 in the same assay as above. Conditions: incubation time: 72 h.
Outline: as §1

Question: How did the normalised response turn out when C/C(=C\c1csc(C)n1)[C@@H]1C[C@@H]2O[C@]2(C)CCC[C@H](C)[C@H](O)[C@@H](C)C(=O)C(C)(C)[C@@H](O)CC(=O)N1 [Ixabepilone] (10 nM) was run?
Answer: 100%

Question: For CN(C)C(=N)NC(=N)N [Metformin] (1000 nM), which normalised response is on record?
Answer: 96.3%

Question: Which normalised response does the source give for CN(Cc1cnc2nc(N)nc(N)c2n1)c1ccc(C(=O)N[C@@H](CCC(=O)O)C(=O)O)cc1 [Methotrexate] (500 nM) here?
Answer: 101%

Question: Which normalised response does the source give for Cc1cn(-c2cc(NC(=O)c3ccc(C)c(Nc4nccc(-c5cccnc5)n4)c3)cc(C(F)(F)F)c2)cn1 [Nilotinib] (100 nM) here?
Answer: 99%

Question: Which normalised response does the source give for CC[C@H](CO)Nc1nc(NCc2ccccc2)c2ncn(C(C)C)c2n1 [Seliciclib] (100 nM) here?
Answer: 105%

Question: Which normalised response does the source give for C=CCN(/C=C1/C(=O)O[C@H](COC)[C@@]2(C)C1=C(O)C(=O)C1=C2[C@H](OC(C)=O)C[C@]2(C)C(=O)CC[C@@H]12)CC=C [Sonolisib] (100 nM) here?
Answer: 106%

What follows are compounds tested on CAL-85-1 in the same assay as above. Conditions: incubation time: 72 h.
Outline: as §1

Question: For C/C(=C\c1csc(C)n1)[C@@H]1C[C@@H]2O[C@]2(C)CCC[C@H](C)[C@H](O)[C@@H](C)C(=O)C(C)(C)[C@@H](O)CC(=O)N1 [Ixabepilone] (10 nM), which normalised response is on record?
Answer: 97.5%

Question: How did the normalised response turn out when CN(C)C(=N)NC(=N)N [Metformin] (1000 nM) was run?
Answer: 97.7%

Question: Which normalised response does the source give for CN(Cc1cnc2nc(N)nc(N)c2n1)c1ccc(C(=O)N[C@@H](CCC(=O)O)C(=O)O)cc1 [Methotrexate] (500 nM) here?
Answer: 95.6%

Question: For Cc1cn(-c2cc(NC(=O)c3ccc(C)c(Nc4nccc(-c5cccnc5)n4)c3)cc(C(F)(F)F)c2)cn1 [Nilotinib] (100 nM), which normalised response is on record?
Answer: 107%

Question: With CC[C@H](CO)Nc1nc(NCc2ccccc2)c2ncn(C(C)C)c2n1 [Seliciclib] (100 nM) as the compound, how does the normalised response read?
Answer: 98.6%

Question: How did the normalised response turn out when C=CCN(/C=C1/C(=O)O[C@H](COC)[C@@]2(C)C1=C(O)C(=O)C1=C2[C@H](OC(C)=O)C[C@]2(C)C(=O)CC[C@@H]12)CC=C [Sonolisib] (100 nM) was run?
Answer: 109%

These compounds were tested on MDA-MB-231 in the same assay as above. Conditions: incubation time: 72 h.
Outline: as §1

Question: How did the normalised response turn out when C/C(=C\c1csc(C)n1)[C@@H]1C[C@@H]2O[C@]2(C)CCC[C@H](C)[C@H](O)[C@@H](C)C(=O)C(C)(C)[C@@H](O)CC(=O)N1 [Ixabepilone] (10 nM) was run?
Answer: 98.6%
